Measurements: paper PMC4975031, “A multifunctional GH39 glycoside hydrolase from the anaerobic gut fungus Orpinomyces sp. strain C1A” (PeerJ, 2016)
One block for each molecule: values may come before it.

Legend:
Bgxg1 [1] = target: T1, Bgxg1 (Pecoramyces ruminantium, UniProt A0A0U3AYH9); test: p-nitrophenol release, Lineweaver-Burk; type: biochemical; settings: pH 6.0, sodium acetate buffer, 39 °C; printed BDL (below detection limit, 500 nM)
T1 construct: codon-optimised fragment, 939 bp [sic], nucleotide positions 67-1,035 of transcript m.21910 (signal peptide predicted in full-length product)
Text: (§1) p-nitrophenol release, Lineweaver-Burk on Bgxg1

Bgxg1 [2] = target: T1, Bgxg1; test: substrate competition: PNPG hydrolysis in presence of xylobiose; type: biochemical; settings: read-out: Relative specific activity (%)
Text: substrate competition: PNPG hydrolysis in presence of xylobiose on Bgxg1

[3] = tested on: T2, O=[N+]([O-])c1ccc(O[C@@H]2OC[C@@H](O)[C@H](O)[C@H]2O)cc1; test: p-nitrophenol release, Lineweaver-Burk; type: biochemical, Pecoramyces ruminantium; settings: pH 6.0, sodium acetate buffer, 39 °C
T2 construct: codon-optimised fragment, 939 bp [sic], nucleotide positions 67-1,035 of transcript m.21910 (signal peptide predicted in full-length product)
Text: as §1

T1 sequence (A0A0U3AYH9 23-335 limits assumed): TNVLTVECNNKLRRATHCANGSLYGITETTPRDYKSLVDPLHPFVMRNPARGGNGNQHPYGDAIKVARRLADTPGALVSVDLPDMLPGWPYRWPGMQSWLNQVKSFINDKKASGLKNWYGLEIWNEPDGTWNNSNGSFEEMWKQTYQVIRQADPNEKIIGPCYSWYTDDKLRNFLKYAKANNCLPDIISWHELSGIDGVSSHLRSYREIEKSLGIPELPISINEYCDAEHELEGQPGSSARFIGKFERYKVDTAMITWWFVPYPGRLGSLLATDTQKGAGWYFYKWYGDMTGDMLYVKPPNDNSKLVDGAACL

- Km (Bgxg1 [1]): < 0.5 µM
Molecule: O=[N+]([O-])c1ccc(O[C@@H]2O[C@H](CO)[C@@H](O)[C@H](O)[C@H]2O)cc1 [PNPG, p-nitrophenyl-β-D-glucopyranoside]

- activity at 20000 µM (Bgxg1 [2]): 57.2%
Molecule: OC1OC[C@@H](O[C@@H]2OC[C@@H](O)[C@H](O)[C@H]2O)[C@H](O)[C@H]1O (some centres unmarked) [xylobiose]

Molecule: Bgxg1 (Pecoramyces ruminantium)
- Km [3]: 4.85 ± 0.62 µM
- Vmax [3]: 127 µmol/min/mg

- Km (Bgxg1 [1]): < 0.5 µM
Molecule: O=[N+]([O-])c1ccc(O[C@@H]2O[C@H](CO)[C@H](O)[C@H](O)[C@H]2O)cc1 [PNPGal, p-nitrophenyl-β-D-galactopyranoside]
